According to patent US8247211B2, “Glycopeptide antibiotics” (American Cyanamid Company, priority 2001, dated 2012):
In brackets after ≈: the same amount, converted by molar mass.

What was measured:
Test in all cases: In vitro antibacterial evaluation: minimum inhibitory concentration (MIC), broth dilution method
Format in all cases: cell-based
Escherichia coli = conditions: 18 hours at 35° C.
Procedure, shortened: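 NCCLS M7-A2 broth dilution; Muller-Hinton II […]; 5×10^5 CFU/mL; 64-0.06 μg/mL. MIC = lowest concentration with no growth.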

Streptococcus sp. = conditions: 18 hours at 35° C.
Procedure, shortened: (§1)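 First, organisms are seeded at 5×10^5 CFU/mL into Muller-Hinton II […]. Next, antibiotic is applied across 64-0.06 μg/mL by broth dilution (NCCLS M7-A2). Finally, the lowest inhibitory concentration is recorded as MIC.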

Staphylococcus sp. = test system: Staphylococcus sp.
Procedure, shortened: as §1

Enterococcus sp. = conditions: 18 hours at 35° C.
Procedure, shortened: as §1

[1] = broth dilution, inoculum 5×10^5 CFU/mL

N=C1NCC(C(O)C2NC(=O)C(CC3CCC(OC4OC(CO)C(OC5OC6COC7(OC6C(O)C5O)C5CC6CC(C5)CC7C6)C(O)C4O)CC3)NC(=O)C(CC3CCCCC3)NC(=O)CNC(=O)C(CO)NC(=O)C(C(O)C3CNC(=N)N3C3OC(CO)C(O)C(O)C3O)NC2=O)N1 (stereo not drawn) [Example 223]
MIC Escherichia coli (ATCC 25922) (Escherichia coli; Escherichia coli (ATCC 25922)): >64 µg/mL | MIC Escherichia coli (GC 4559) (Escherichia coli; Escherichia coli (GC 4559)): >64 µg/mL | MIC Escherichia coli (GC 4560) (Escherichia coli; Escherichia coli (GC 4560)): 32 µg/mL (≈ 22.4 µM) | MIC Streptococcus agalactiae (GC 4564) (Streptococcus sp.; Streptococcus agalactiae (GC 4564)): >64 µg/mL | MIC Streptococcus pneumoniae (ATCC 6301) (Streptococcus sp.; Streptococcus pneumoniae (ATCC 6301)): 64 µg/mL (≈ 44.9 µM) | MIC Streptococcus pneumoniae (GC 1894) (Streptococcus sp.; Streptococcus pneumoniae (GC 1894)): 32 µg/mL (≈ 22.4 µM) | MIC Streptococcus pneumoniae (GC 4565) (Streptococcus sp.; Streptococcus pneumoniae (GC 4565)): >64 µg/mL | MIC Streptococcus pyogenes (GC 4563) (Streptococcus sp.; Streptococcus pyogenes (GC 4563)): 64 µg/mL (≈ 44.9 µM) | MIC Streptococcus agalactiae (GC 4564) (Streptococcus sp.; [1]): >64 µg/mL | MIC Streptococcus pneumoniae (ATCC 6301) (Streptococcus sp.; [1]): 64 µg/mL (≈ 44.9 µM) | MIC Streptococcus pneumoniae (GC 1894) (Streptococcus sp.; [1]): 32 µg/mL (≈ 22.4 µM) | MIC Streptococcus pneumoniae (GC 4565) (Streptococcus sp.; [1]): >64 µg/mL | MIC Streptococcus pyogenes (GC 4563) (Streptococcus sp.; [1]): 64 µg/mL (≈ 44.9 µM) | MIC Staphylococcus aureus (ATCC 29213) (Staphylococcus sp.; strain ATCC 29213): >64 µg/mL | MIC Staphylococcus aureus (GC 1131) (Staphylococcus sp.; strain GC 1131): >64 µg/mL | MIC Staphylococcus aureus (GC 3051) (Staphylococcus sp.; strain GC 3051): 64 µg/mL (≈ 44.9 µM) | MIC Staphylococcus aureus (GC 3053) (Staphylococcus sp.; strain GC 3053): >64 µg/mL | MIC Staphylococcus aureus (GC 4541) (Staphylococcus sp.; strain GC 4541): 64 µg/mL (≈ 44.9 µM) | MIC Staphylococcus aureus (GC 4542) (Staphylococcus sp.; strain GC 4542): 64 µg/mL (≈ 44.9 µM) | MIC Staphylococcus aureus-SMITH (GC 4543) (Staphylococcus sp.; strain GC 4543): 64 µg/mL (≈ 44.9 µM) | MIC Staphylococcus aureus (GC 4544) (Staphylococcus sp.; strain GC 4544): 64 µg/mL (≈ 44.9 µM) | MIC Staphylococcus aureus (GC 4545) (Staphylococcus sp.; strain GC 4545): 64 µg/mL (≈ 44.9 µM) | MIC Staphylococcus haemolyticus (GC 4546) (Staphylococcus sp.; strain GC 4546): 64 µg/mL (≈ 44.9 µM) | MIC Coagulase Negative Staphylococcus (GC 4547) (Staphylococcus sp.; strain GC 4547): 64 µg/mL (≈ 44.9 µM) | MIC Coagulase Negative Staphylococcus (GC 4548) (Staphylococcus sp.; strain GC 4548): 64 µg/mL (≈ 44.9 µM) | MIC Coagulase Negative Staphylococcus (GC 4549) (Staphylococcus sp.; strain GC 4549): 64 µg/mL (≈ 44.9 µM) | MIC Coagulase Negative Staphylococcus (GC 4551) (Staphylococcus sp.; strain GC 4551): 64 µg/mL (≈ 44.9 µM) | MIC Enterococcus avium (GC 4558) (Enterococcus sp.; Enterococcus avium (GC 4558)): 64 µg/mL (≈ 44.9 µM) | MIC Enterococcus faecalis (ATCC 29212) (Enterococcus sp.; Enterococcus faecalis (ATCC 29212)): >64 µg/mL | MIC Enterococcus faecalis (GC 2242) (Enterococcus sp.; Enterococcus faecalis (GC 2242)): >64 µg/mL | MIC Enterococcus faecalis (GC 2691) (Enterococcus sp.; Enterococcus faecalis (GC 2691)): >64 µg/mL | MIC Enterococcus faecalis (GC 3059) (Enterococcus sp.; Enterococcus faecalis (GC 3059)): >64 µg/mL | MIC Enterococcus faecalis (GC 4552) (Enterococcus sp.; Enterococcus faecalis (GC 4552)): >64 µg/mL | MIC Enterococcus faecalis (GC 4553) (Enterococcus sp.; Enterococcus faecalis (GC 4553)): 64 µg/mL (≈ 44.9 µM) | MIC Enterococcus faecalis (GC 4554) (Enterococcus sp.; Enterococcus faecalis (GC 4554)): >64 µg/mL | MIC Enterococcus faecalis (GC 6189) (Enterococcus sp.; Enterococcus faecalis (GC 6189)): >64 µg/mL | MIC Enterococcus faecium (GC 2243) (Enterococcus sp.; Enterococcus faecium (GC 2243)): >64 µg/mL | MIC Enterococcus faecium (GC 4556) (Enterococcus sp.; Enterococcus faecium (GC 4556)): >64 µg/mL | MIC Enterococcus faecium (GC 4557) (Enterococcus sp.; Enterococcus faecium (GC 4557)): 64 µg/mL (≈ 44.9 µM) | MIC Enterococcus avium (GC 4558) (Enterococcus sp.; [1]): 64 µg/mL (≈ 44.9 µM) | MIC Enterococcus faecalis (ATCC 29212) (Enterococcus sp.; [1]): >64 µg/mL | MIC Enterococcus faecalis (GC 2242) (Enterococcus sp.; [1]): >64 µg/mL | MIC Enterococcus faecalis (GC 2691) (Enterococcus sp.; [1]): >64 µg/mL | MIC Enterococcus faecalis (GC 3059) (Enterococcus sp.; [1]): >64 µg/mL | MIC Enterococcus faecalis (GC 4552) (Enterococcus sp.; [1]): >64 µg/mL | MIC Enterococcus faecalis (GC 4553) (Enterococcus sp.; [1]): 64 µg/mL (≈ 44.9 µM) | MIC Enterococcus faecalis (GC 4554) (Enterococcus sp.; [1]): >64 µg/mL | MIC Enterococcus faecalis (GC 6189) (Enterococcus sp.; [1]): >64 µg/mL | MIC Enterococcus faecium (GC 2243) (Enterococcus sp.; [1]): >64 µg/mL | MIC Enterococcus faecium (GC 4556) (Enterococcus sp.; [1]): >64 µg/mL | MIC Enterococcus faecium (GC 4557) (Enterococcus sp.; [1]): 64 µg/mL (≈ 44.9 µM)
